In patent publication US11597738B2 (Mindset Pharma Inc., priority 2020, dated 2023):

Key:
[1] = In vivo pharmacokinetics in rats; details: male Sprague-Dawley rats
Experimental: (§1) Male C57BL/6 mice (25-30 g) and male Sprague-Dawley rats (250-325 g) from Charles River Labs were acclimatized for a minimum of 5 days prior to dosing. Body weights were recorded on the day of dosing.
(§2) Animals dosed p.o. were deprived of food overnight and fed ˜2 h following dosing.
(§3) Formulations were administered intravenously (i.v.) via the tail vein or orally (p.o.) by gavage with disposable feeding needles.
(§4) Serial blood samples were collected via tail snip. Terminal blood samples were collected under isoflurane anesthesia by cardiac puncture.
(§5) All blood samples were transferred into K2EDTA tubes on wet ice and centrifuged within 5 min (3200×g for 5 min at 4° C.) to obtain plasma. Plasma was stored at −80° C. until analysis.
(§6) Mouse or Rat Plasma, as Applicable.
(§7) AB Sciex QTRAP 4000 or 6500 MS/MS system equipped with an LC system with a binary pump, a solvent degasser, a thermostatted column compartment and a multiplate autosampler. i. Analysis software: Phoenix® WinNonlin® 8.2 (Pharsight, Certara, Mountainview, Calif.) ii. Analysis methods: non-compartmental analysis, linear up/log down trapezoidal rule iii. PK parameters: C0, t1/2, AUC0-tlast. AUC0-∞, CL, Vss, MRT, tmax(po), Cmax(po), F, as appropriate

[2] = test system: head-twitch response (HTR) in male C57BL6 mice; test: Mouse head twitch (HTR); assay type: in vivo, C57BL/6J mice; details: 0.3-10 mg/kg SC, measured over 1 h
Experimental: Data is expressed as mean+SEM. The induction of head twitches elicited by 5-HT2A receptor agonists is believed to represent a behavioural proxy of their psychedelic effects.
The effect of different doses of exemplary compounds of Formula I were evaluated on head-twitch response (HTR) as a behavior-based model of psychedelic activity.
Male, C57BL/6J mice (body weight range 20-30 g) were dosed with the appropriate dose of test article, and following a 1-minute pre-treatment time, placed in individual observation chambers. Animals were visually assessed for the incidence head twitches continuously over a 1 hr period. Head twitches were defined as a rapid jerk of the head which was not elicited by an external tactile stimulus (Corne and Pickering, Psychopharmacologia, 1967, 11(1): 65-78). Each head twitch was individually counted by a trained observer, and the data expressed as the mean+SEM of 6-10 mice per group. Mice were used in a single experiment only.

[3] = In vivo pharmacokinetics in mice; details: male C57BL/6 mice
Experimental: as §1, §2, §3, §4, §5, §6, §7

SMILES: [2H]C([2H])([2H])N(C([2H])([2H])[2H])C([2H])([2H])C([2H])([2H])c1c[nH]c2cccc(O)c12 [Compound I-45, 3-(2-(bis(methyl-d3)amino)ethyl-1,1,2,2-d4)-1H-indol-4-ol]
- AUC0-inf/Dose ([1]; i.v., 0.3 mg/kg): 181 ± 30.8 kg·ng·h/mL/mg
- AUC0-inf/Dose ([1]; p.o.): 181 ± 14.6 kg·ng·h/mL/mg
- Cmax/Dose ([1]; p.o., 3.0 mg/kg (title; dose row prints 10)): 79.2 ± 24.4 kg·ng/mL/mg
- AUC0-inf/Dose ([1]; s.c., 0.3 mg/kg): 120 ± 29.0 kg·ng·h/mL/mg
- Cmax/Dose ([1]; s.c., 0.3 mg/kg): 101 ± 40.7 kg·ng/mL/mg
- AUC(0-inf) ([1]; rat, plasma, iv, 0.3 mg/kg): 0.117 ± 0.0115 µg·h/mL
- C0 ([1]; rat, plasma, iv, 0.3 mg/kg): 0.0765 ± 0.00749 µg/mL
- head twitch frequency compared to vehicle control [2]: dose dependent increase in head twitch frequency
- AUC0-inf/Dose ([3]; i.v., 1 mg/kg): 181 ± 30.8 kg·ng·h/mL/mg
- AUC0-inf/Dose ([3]; p.o., 10 mg/kg): 79.5 ± 12.1 kg·ng·h/mL/mg
- Cmax/Dose ([3]; p.o., 10 mg/kg): 70.4 ± 12.8 kg·ng/mL/mg
